Publication PMC5658662 (Biochemistry, 2017)
“And” between values parts separate entries of the source, which are not always exact repeats. Equal entries are not always repeated. Where two headings read alike, the source gives them in different places. Marks after values point to notes of the source that are not given here.

Columns and labels:
cytochrome P450 OleT [1] = biological target: T1, cytochrome P450 OleT (Jeotgalicoccus sp. ATCC 8456, UniProt E9NSU2); conditions: for maximal high-spin conversion: UV-vis titration, low- to high-spin conversion
cytochrome P450 OleT [2] = biological target: T1, cytochrome P450 OleT; type: biochemical; conditions: for % metabolized: 5 μM OleT, 500 μM fatty acid; for % metabolized / product distribution (%) alcohols: slow H2O2 addition; for alcohol regiospecificity α: share of alcohols hydroxylated at Cα; for alcohol regiospecificity β: share of alcohols hydroxylated at Cβ; for product distribution (%) 1-alkene: determined from subtraction of product alcohols from the total FA metabolized; for product distribution (%) alcohols: share of total product
cytochrome P450 OleT [3] = type: biochemical, Jeotgalicoccus sp. ATCC 8456
cytochrome P450 OleT [4] = biological target: T1, cytochrome P450 OleT; test: Stopped flow transient kinetics of OleT:fatty acid complexes with H2O2; type: biochemical
cytochrome P450 OleT [5] = biological target: T1, cytochrome P450 OleT; test: Guaiacol oxidation to tetraguaiacol by fatty acid-activated OleT; type: biochemical; conditions: DA-d19 compared with protiated DA as decoy
cytochrome P450 OleT [6] = biological target: T1, cytochrome P450 OleT; type: biochemical
cytochrome P450 OleT [7] = biological target: T1, cytochrome P450 OleT; conditions: in vitro; ref [2]–[4]; cited from earlier work
cytochrome P450 OleT [8] = biological target: T1, cytochrome P450 OleT; conditions: ref [29], cited from earlier work
cytochrome P450 OleT [9] = biological target: T1, cytochrome P450 OleT; conditions: read-out: dissociation constant reported for EA; reported value; ref [2],[13]; cited from earlier work
[10] = in the absence of norcarane, 10 mM H2O2, 440 nm, 4 °C
[11] = in the presence of norcarane, 10 mM H2O2, 440 nm, 4 °C
[12] = 5 μM OleT, 200 mM KPi pH 7.5, 200 mM NaCl, absorbance changes at 392 and 417 nm

CCCCCCCCCCCC(=O)O [C12:0, lauric acid]
Kd (cytochrome P450 OleT [1]): 2.8 ± 0.4 µM
maximal high-spin conversion (cytochrome P450 OleT [1]): 61%
% metabolized (cytochrome P450 OleT [2]): 98.3 ± 0.2%
alcohol regiospecificity α (cytochrome P450 OleT [2]): 7.0 ± 1.3% α
alcohol regiospecificity α (cytochrome P450 OleT [2]; listed as LA): 7%
alcohol regiospecificity β (cytochrome P450 OleT [2]): 71.5 ± 15.5% β
alcohol regiospecificity γ (cytochrome P450 OleT [2]; share of alcohols hydroxylated at Cγ): 21.5 ± 4.4% γ
product distribution (%) 1-alkene (cytochrome P450 OleT [3]; determined from direct quantitation): 61.4 ± 7.6 ^a %
product distribution (%) alcohols (cytochrome P450 OleT [3]; slow H2O2 addition, share of total product): 38.6 ± 7.6%

[2H]C([2H])([2H])C([2H])([2H])C([2H])([2H])C([2H])([2H])C([2H])([2H])C([2H])([2H])C([2H])([2H])C([2H])([2H])C([2H])([2H])C(=O)O [DA-d19, perdeuterated decanoic acid]
Ole-I decay rate constant (cytochrome P450 OleT [4]; asymptote of RRT1 vs H2O2 plot, 4 °C): ~ 60 s^−1
Ole-II decay rate constant (cytochrome P450 OleT [4]; independent of H2O2, 4 °C): ~10 s⁻¹
improvement of guaiacol oxidation rate (cytochrome P450 OleT [5]): approximately 5 fold
product yields for radical clock substrates by decoy fatty acid (cytochrome P450 OleT [6]; comparison of decoy fatty acids): highest

[2H]C([2H])([2H])C([2H])([2H])C([2H])([2H])C([2H])([2H])C([2H])([2H])C([2H])([2H])C([2H])([2H])C([2H])([2H])C([2H])([2H])C([2H])([2H])C([2H])([2H])C(=O)O [LA-d23]
Ole-II decay rate constant (RRT2) (cytochrome P450 OleT [4]; [10]): 10.4 ± 0.5 s⁻¹
Ole-II formation (RRT1) (cytochrome P450 OleT [4]; [10]): 105 ± 10 s⁻¹
Ole-II decay rate constant (RRT2) (cytochrome P450 OleT [4]; [11]): 12.5 ± 0.6 s⁻¹
Ole-II formation (Ole-I decay) rate constant (RRT1) (cytochrome P450 OleT [4]; [11]): 66 ± 3 s⁻¹

CCCCCCCCCCCCCCCCCCCC(=O)O [EA, eicosanoic acid]
chemoselectivity for 1-nonadecene production (cytochrome P450 OleT [7]): ≥ 95%
Ole-II decay (cytochrome P450 OleT [8]; at 5 °C, decarboxylation of EA): ~ 10 s^−1
substrate 2H KIE (kH/kD) for the decay of Ole-I (cytochrome P450 OleT [8]): > 8
Kd (cytochrome P450 OleT [9]): < 1 µM

CCCCCCCCCC(=O)O [C10:0, decanoic acid]
Kd (cytochrome P450 OleT [1]): 25 ± 8 µM
maximal high-spin conversion (cytochrome P450 OleT [1]): 36%
% metabolized (cytochrome P450 OleT [2]): 100%
product distribution (%) 1-alkene (cytochrome P450 OleT [2]): 90.0 ± 0.8 ^b %
alcohol regiospecificity β (cytochrome P450 OleT [2]): 100% β
product distribution (%) alcohols (cytochrome P450 OleT [2]): 10.0 ± 0.8%

CCCCCC(=O)O [C6:0]
Kd (cytochrome P450 OleT [1]; [12]): 164 ± 15 µM
maximal high-spin conversion (cytochrome P450 OleT [1]): 19%

C1CCC2CC2C1 (centres unmarked) [norcarane, bicyclo[4.1.0]heptane]
radical lifetime (cytochrome P450 OleT [6]; from averaged ratio of rearranged products to norcaranol (G + E)): ~ 35 ps
product yield (%) F (cytochrome P450 OleT [6]; in the presence of DA-d19): 1.9%
product yield (%) I (cytochrome P450 OleT [6]; in the presence of DA-d19): 0.55%
product yield (%) C (cytochrome P450 OleT [6]; in the presence of DA-d19, 4-hydroxy-2-norcarene): 3.8%
product yield (%) cation (cytochrome P450 OleT [6]; in the presence of DA-d19, cation-rearranged product 3-cycloheptenol (A)): 2.6% and 1.4%
product yield (%) E (cytochrome P450 OleT [6]; in the presence of DA-d19, endo-2-norcaranol): 51.5% and 47.6%
product yield (%) G (cytochrome P450 OleT [6]; in the presence of DA-d19, exo-2-norcaranol): 38.9% and 33.4%
product yield (%) radical (cytochrome P450 OleT [6]; in the presence of DA-d19, radical-rearranged product 3-hydroxymethylcyclohexene (D)): 0.75% and 0.47%
radical lifetime (cytochrome P450 OleT [6]; per trial, from product ratio and krearr = 2 × 10^8 s−1): 42 ps and 29 ps

[2H]C([2H])([2H])C([2H])([2H])C([2H])([2H])C([2H])([2H])C([2H])([2H])C([2H])([2H])C([2H])([2H])C([2H])([2H])C([2H])([2H])C([2H])([2H])C([2H])([2H])C([2H])([2H])C([2H])([2H])C([2H])([2H])C([2H])([2H])C([2H])([2H])C([2H])([2H])C([2H])([2H])C([2H])([2H])C(=O)O [EA-d39, perdeuterated eicosanoic acid]
Ole-II decay rate constant (RRT2) (cytochrome P450 OleT [4]; [11]): 10 ± 2 s⁻¹
Ole-II formation (Ole-I decay) rate constant (RRT1) (cytochrome P450 OleT [4]; [11]): 83 ± 3 s⁻¹

CC1CC1c1ccccc1 (centres unmarked) [methylcyclopropane]
product yield (%) ring-closed (cytochrome P450 OleT [6]; in the presence of DA-d19): 41.9% and 40.1%
product yield (%) ring-opened (cytochrome P450 OleT [6]; in the presence of DA-d19): 58.1% and 59.9%
radical lifetime (cytochrome P450 OleT [6]; per trial, from product ratio and krearr = 3 × 10^11 s−1): 2.4 ps

CCCCCCCC(=O)O [C8:0]
Kd (cytochrome P450 OleT [1]; [12]): 134 ± 11 µM
maximal high-spin conversion (cytochrome P450 OleT [1]): 25%
% metabolized (cytochrome P450 OleT [2]): 100%
product distribution (%) 1-alkene (cytochrome P450 OleT [2]): 88.4 ± 0.4 ^b %
alcohol regiospecificity α (cytochrome P450 OleT [2]): 11.3 ± 2.3% α
alcohol regiospecificity β (cytochrome P450 OleT [2]): 89.0 ± 5.3% β
product distribution (%) alcohols (cytochrome P450 OleT [2]): 11.6 ± 0.8%
